From US10934310B2, “Inhibitors of Bruton's tyrosine kinase and method of their use” (JANSSEN PHARMACEUTICA NV, priority 2015, dated 2021)

Biological target: unphosphorylated-BTK kinase domain (UP-BTK), GST-tagged human BTK (389-659aa) (Homo sapiens (Human), UniProt Q06187)
Assay: BTK Kinase Lanthascreen Binding Assay
Details: Lanthascreen binding, 60 minutes incubation; pIC50 = negative log of the IC50 in molar
Method: BTK Kinase Lanthascreen Binding Assay:
A BTK kinase lanthascreen binding assay monitors compound binding to unphosphorylated-BTK kinase domain (UP-BTK), by competing with a fluorescent labeled tracer. […] Data were analyzed using Xlfit™ version 5.3 from ID Business Solutions (Guildford), Microsoft Excel add-in. pIC50 refers to the negative log of the IC50 in molar.

Chain of unphosphorylated-BTK kinase domain (UP-BTK), GST-tagged human BTK (389-659aa) (Q06187 389-659): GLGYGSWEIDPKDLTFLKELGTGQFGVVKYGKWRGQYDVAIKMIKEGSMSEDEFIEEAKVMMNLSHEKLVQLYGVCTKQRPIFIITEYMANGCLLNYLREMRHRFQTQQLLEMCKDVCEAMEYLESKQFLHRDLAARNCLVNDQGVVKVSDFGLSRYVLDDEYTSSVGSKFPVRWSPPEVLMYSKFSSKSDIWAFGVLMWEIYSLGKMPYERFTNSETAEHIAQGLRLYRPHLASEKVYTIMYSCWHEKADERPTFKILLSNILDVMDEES

Compared with `C=CC(=O)N[C@H]1CCC[C@H]1NC(=O)c1sc2nccc3c2c1NC(=O)N3c1cccc(C(C)C)c1` [Example 438, N-((1R,2S)-2-Acrylamidocyclopentyl)-5-(3-isopropylphenyl)-4-oxo-4,5-dihydro-3H-1-thia-3,5,8-triazaacenaphthylene-2-carboxamide], `C=CC(=O)N[C@H]1CCC[C@H]1NC(=O)c1sc2nccc3c2c1NC(=O)N3c1cnc(Oc2cccc(C)n2)cc1C` [Example 483, N-((1R,2S)-2-Acrylamidocyclopentyl)-5-(4-methyl-6-((6-methylpyridin-2-yl)oxy)pyridin-3-yl)-4-oxo-4,5-dihydro-3H-1-thia-3,5,8-triazaacenaphthylene-2-carboxamide] is lower in “BTK_I_binding pIC50” value: 8.02 for the first, 7.49 for the second.

Going from `C=CC(=O)N[C@H]1CCCC[C@H]1NC(=O)c1sc2nccc3c2c1NC(=O)N3c1ccc(Oc2ccccn2)cc1` [Example 442, N-((1R,2S)-2-Acrylamidocyclohexyl)-4-oxo-5-(4-(pyridin-2-yloxy)phenyl)-4,5-dihydro-3H-1-thia-3,5,8-triazaacenaphthylene-2-carboxamide] to `C=CC(=O)N[C@H]1CCC[C@H]1NC(=O)c1sc2nccc3c2c1NC(=O)N3c1ccc(Oc2ccccn2)cn1` [Example 480, N-((1R,2S)-2-Acrylamidocyclopentyl)-4-oxo-5-(5-(pyridin-2-yloxy)pyridin-2-yl)-4,5-dihydro-3H-1-thia-3,5,8-triazaacenaphthylene-2-carboxamide], the “BTK_I_binding pIC50” value rises from 6.84 to 7.59.

`Cc1cc(OC(C)C)ccc1N1C(=O)Nc2c(C(=O)N[C@@H]3CCC[C@@H]3N)sc3nccc1c23` [Example 453, N-((1R,2S)-2-Aminocyclopentyl)-5-(4-isopropoxy-2-methylphenyl)-4-oxo-4,5-dihydro-3H-1-thia-3,5,8-triazaacenaphthylene-2-carboxamide] and `CC(=O)N[C@@H]1CC[C@H](NC(=O)c2sc3nccc4c3c2NC(=O)N4c2ccc(OC(C)C)cc2C)C1` [Example 454, N-((1S,3R)-3-Acetamidocyclopentyl)-5-(4-isopropoxy-2-methylphenyl)-4-oxo-4,5-dihydro-3H-1-thia-3,5,8-triazaacenaphthylene-2-carboxamide] are within 0.2 log units of each other in “BTK_I_binding pIC50” value: 6.32 for the first, 6.21 for the second.

First: N[C@@H]1CCCC[C@@H]1NC(=O)c1sc2nccc3c2c1NC(=O)N3c1ccc(Oc2ccccc2)cc1 [Example 457, N-((1S,2R)-2-Aminocyclohexyl)-4-oxo-5-(4-phenoxyphenyl)-4,5-dihydro-3H-1-thia-3,5,8-triazaacenaphthylene-2-carboxamide]
Second: O=C(NC1CCCCC1)c1sc2nccc3c2c1NC(=O)N3c1ccc(Oc2ccccc2)cc1 [Example 463, N-Cyclohexyl-4-oxo-5-(4-phenoxyphenyl)-4,5-dihydro-3H-1-thia-3,5,8-triazaacenaphthylene-2-carboxamide]
The “BTK_I_binding pIC50” value of the first is lower: 5.81 for the first, 6.22 for the second.

Going from `C=CC(=O)N[C@H]1CCC[C@@H]1NC(=O)c1sc2nccc3c2c1NC(=O)N3c1ccc(Oc2ccccc2)cc1C` [Example 458, N-((1S,2S)-2-Acrylamidocyclopentyl)-5-(2-methyl-4-phenoxyphenyl)-4-oxo-4,5-dihydro-3H-1-thia-3,5,8-triazaacenaphthylene-2-carboxamide] to `C=CC(=O)N[C@@H]1CCC[C@@H]1NC(=O)c1sc2nccc3c2c1NC(=O)N3c1ccc(Oc2ccccc2)cc1C` [Example 459, N-((1S,2R)-2-Acrylamidocyclopentyl)-5-(2-methyl-4-phenoxyphenyl)-4-oxo-4,5-dihydro-3H-1-thia-3,5,8-triazaacenaphthylene-2-carboxamide], the “BTK_I_binding pIC50” value falls from 7.53 to 7.13.

Compared with `Cc1cc(Oc2cccc(COc3ccccc3C#N)c2)ccc1N1C(=O)Nc2c(C(=O)NC3CCCCC3)sc3nccc1c23` [Example 460, 5-(4-(3-((2-Cyanophenoxy)methyl)phenoxy)-2-methylphenyl)-N-cyclohexyl-4-oxo-4,5-dihydro-3H-1-thia-3,5,8-triazaacenaphthylene-2-carboxamide], `Cc1cc(Oc2cccc(COc3ccccc3C#N)c2)ccc1N1C(=O)Nc2c(NC(=O)C3CC3)sc3nccc1c23` [Example 461, N-(5-(4-(3-((2-Cyanophenoxy)methyl)phenoxy)-2-methylphenyl)-4-oxo-4,5-dihydro-3H-1-thia-3,5,8-triazaacenaphthylen-2-yl)cyclopropanecarboxamide] is lower in “BTK_I_binding pIC50” value: 6.78 for the first, 6.46 for the second.

Compared with `Cc1cc(Oc2ccccc2)ccc1N1C(=O)Nc2c(C(=O)NC3CCCCC3)sc3nccc1c23` [Example 462, N-Cyclohexyl-5-(2-methyl-4-phenoxyphenyl)-4-oxo-4,5-dihydro-3H-1-thia-3,5,8-triazaacenaphthylene-2-carboxamide], `C=CC(=O)N[C@H]1CCC[C@H]1NC(=O)c1sc2nccc3c2c1NC(=O)N3c1ccc(Oc2cncnc2)cc1C` [Example 482, N-((1R,2S)-2-Acrylamidocyclopentyl)-5-(2-methyl-4-(pyrimidin-5-yloxy)phenyl)-4-oxo-4,5-dihydro-3H-1-thia-3,5,8-triazaacenaphthylene-2-carboxamide] is higher in “BTK_I_binding pIC50” value: 6.33 for the first, 7.79 for the second.

Compared with `C=CC(=O)N[C@H]1CCC[C@H]1NC(=O)c1sc2nccc3c2c1NC(=O)N3c1cnc(Oc2ncccn2)cc1C` [Example 465, N-((1R,2S)-2-Acrylamidocyclopentyl)-5-(4-methyl-6-(pyrimidin-2-yloxy)pyridin-3-yl)-4-oxo-4,5-dihydro-3H-1-thia-3,5,8-triazaacenaphthylene-2-carboxamide], `C=CC(=O)N[C@H]1CCC[C@H]1NC(=O)c1sc2nccc3c2c1NC(=O)N3c1ccc(Oc2ncccn2)nc1C` [Example 468, N-((1R,2S)-2-Acrylamidocyclopentyl)-5-(2-methyl-6-(pyrimidin-2-yloxy)pyridin-3-yl)-4-oxo-4,5-dihydro-3H-1-thia-3,5,8-triazaacenaphthylene-2-carboxamide] is lower in “BTK_I_binding pIC50” value: 7.25 for the first, 6.52 for the second.

First: C=CC(=O)N[C@H]1CCC[C@H]1NC(=O)c1sc2nccc3c2c1NC(=O)N3c1ccc(Oc2cccnn2)cn1 [Example 476, N-((1R,2S)-2-Acrylamidocyclopentyl)-4-oxo-5-(5-(pyridazin-3-yloxy)pyridin-2-yl)-4,5-dihydro-3H-1-thia-3,5,8-triazaacenaphthylene-2-carboxamide]
Second: C=CC(=O)N[C@H]1CCC[C@H]1NC(=O)c1sc2nccc3c2c1NC(=O)N3c1ccc(Oc2ncccn2)cn1 [Example 484, N-((1R,2S)-2-Acrylamidocyclopentyl)-4-oxo-5-(5-(pyrimidin-2-yloxy)pyridin-2-yl)-4,5-dihydro-3H-1-thia-3,5,8-triazaacenaphthylene-2-carboxamide]
The “BTK_I_binding pIC50” value of the first is lower: 6.20 for the first, 6.93 for the second.

First: C=CC(=O)N[C@H]1CCC[C@H]1NC(=O)c1sc2nccc3c2c1NC(=O)N3c1ccc(-n2ccccc2=O)nc1C [Example 477, N-((1R,2S)-2-Acrylamidocyclopentyl)-5-(6′-methyl-2-oxo-2H-[1,2′-bipyridin]-5′-yl)-4-oxo-4,5-dihydro-3H-1-thia-3,5,8-triazaacenaphthylene-2-carboxamide]
Second: C=CC(=O)N[C@H]1CCC[C@H]1NC(=O)c1sc2nccc3c2c1NC(=O)N3c1ccc(Oc2ccc(C)nc2)cn1 [Example 481, N-((1R,2S)-2-Acrylamidocyclopentyl)-5-(5-((6-methylpyridin-3-yl)oxy)pyridin-2-yl)-4-oxo-4,5-dihydro-3H-1-thia-3,5,8-triazaacenaphthylene-2-carboxamide]
The “BTK_I_binding pIC50” value of the first is lower: 6.85 for the first, 7.33 for the second.

In the case of `C=CC(=O)N[C@H]1CCC[C@H]1NC(=O)c1sc2nccc3c2c1NC(=O)N3c1ccc(Oc2cncnc2)cn1` [Example 485, N-((1R,2S)-2-Acrylamidocyclopentyl)-4-oxo-5-(5-(pyrimidin-5-yloxy)pyridin-2-yl)-4,5-dihydro-3H-1-thia-3,5,8-triazaacenaphthylene-2-carboxamide], the “BTK_I_binding pIC50” value is reported as 6.59.

Same assay, conditions: read-out: BTK_I_binding pIC50 (converted)

`CC(C)c1cccc(N2C(=O)Nc3c(C(=O)N[C@@H]4CCC[C@@H]4N)sc4nccc2c34)c1` [Example 455, N-((1R,2S)-2-Aminocyclopentyl)-5-(3-isopropylphenyl)-4-oxo-4,5-dihydro-3H-1-thia-3,5,8-triazaacenaphthylene-2-carboxamide] and `Cc1cc(OC(C)C)ccc1N1C(=O)Nc2c(C(=O)N[C@@H]3CCC[C@H]3O)sc3nccc1c23` [Example 456, N-((1R,2R)-2-Hydroxycyclopentyl)-5-(4-isopropoxy-2-methylphenyl)-4-oxo-4,5-dihydro-3H-1-thia-3,5,8-triazaacenaphthylene-2-carboxamide] cannot be ordered by IC50: > 1000 nM for the first, > 1000 nM for the second.

First: C=CC(=O)N[C@H]1CCCC[C@H]1NC(=O)c1sc2nccc3c2c1NC(=O)N3c1cnc(Oc2cccnn2)cc1C [Example 467, N-((1R,2S)-2-Acrylamidocyclohexyl)-5-(4-methyl-6-(pyridazin-3-yloxy)pyridin-3-yl)-4-oxo-4,5-dihydro-3H-1-thia-3,5,8-triazaacenaphthylene-2-carboxamide]
Second: C=CC(=O)N[C@H]1CCC[C@H]1NC(=O)c1sc2nccc3c2c1NC(=O)N3c1ccc(Oc2ccccn2)nc1C [Example 478, N-((1R,2S)-2-Acrylamidocyclopentyl)-5-(2-methyl-6-(pyridin-2-yloxy)pyridin-3-yl)-4-oxo-4,5-dihydro-3H-1-thia-3,5,8-triazaacenaphthylene-2-carboxamide]
The IC50 of the first is higher: > 1000 nM for the first, 22.9 nM for the second.

`C=CC(=O)N[C@H]1CCC[C@H]1NC(=O)c1sc2nccc3c2c1NC(=O)N3c1ccc(Oc2cccc(C)n2)cn1` [Example 479, N-((1R,2S)-2-Acrylamidocyclopentyl)-5-(5-((6-methylpyridin-2-yl)oxy)pyridin-2-yl)-4-oxo-4,5-dihydro-3H-1-thia-3,5,8-triazaacenaphthylene-2-carboxamide] was tested, and the IC50 was 28.8 nM.
